# pIC50: −log10 of the molar value.
# Key:
# Format in all cases: biochemical
# [1] = molecular target: T1, SIRT6 (Homo sapiens, UniProt Q8N6T7); assay: Fluorescence enhancement due to enzymatic reaction of SFP1-3 with SIRT6; settings: 5 mM NAM, 48 nM SIRT6, 500 μM NAD, 37 °C
# [2] = molecular target: T1, SIRT6; assay: Evaluation of SIRT inhibitors and activators with SFP3, SIRT6
# [3] = molecular target: T2, SIRT1 (Homo sapiens, UniProt Q96EB6); assay: Evaluation of SIRT inhibitors and activators with SFP3, SIRT1; settings: hydrolysis of 2.5 μM SFP3, 7 nM SIRT1, 500 μM NAD+, 37 °C, 60 min
# T2 sequence (Q96EB6 1-747): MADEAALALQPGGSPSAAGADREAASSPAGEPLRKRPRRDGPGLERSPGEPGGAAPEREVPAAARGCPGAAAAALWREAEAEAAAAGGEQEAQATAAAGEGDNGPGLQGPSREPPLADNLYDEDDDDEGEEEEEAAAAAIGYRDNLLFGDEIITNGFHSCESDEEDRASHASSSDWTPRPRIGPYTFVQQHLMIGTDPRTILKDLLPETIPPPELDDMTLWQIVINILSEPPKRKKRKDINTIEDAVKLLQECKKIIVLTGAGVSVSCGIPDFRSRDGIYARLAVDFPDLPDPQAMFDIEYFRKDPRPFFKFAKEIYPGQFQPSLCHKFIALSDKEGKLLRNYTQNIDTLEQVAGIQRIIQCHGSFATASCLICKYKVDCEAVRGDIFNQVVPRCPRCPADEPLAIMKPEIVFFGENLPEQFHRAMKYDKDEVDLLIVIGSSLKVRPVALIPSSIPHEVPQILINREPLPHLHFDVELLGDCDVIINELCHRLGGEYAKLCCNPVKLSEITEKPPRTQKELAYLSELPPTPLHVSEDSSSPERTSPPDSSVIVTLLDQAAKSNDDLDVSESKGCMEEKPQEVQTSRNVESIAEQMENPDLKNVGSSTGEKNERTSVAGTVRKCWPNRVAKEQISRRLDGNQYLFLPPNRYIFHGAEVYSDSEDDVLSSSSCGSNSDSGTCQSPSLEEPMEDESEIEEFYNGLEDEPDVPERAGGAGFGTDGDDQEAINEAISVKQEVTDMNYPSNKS
# T1 sequence (Q8N6T7 whole entry): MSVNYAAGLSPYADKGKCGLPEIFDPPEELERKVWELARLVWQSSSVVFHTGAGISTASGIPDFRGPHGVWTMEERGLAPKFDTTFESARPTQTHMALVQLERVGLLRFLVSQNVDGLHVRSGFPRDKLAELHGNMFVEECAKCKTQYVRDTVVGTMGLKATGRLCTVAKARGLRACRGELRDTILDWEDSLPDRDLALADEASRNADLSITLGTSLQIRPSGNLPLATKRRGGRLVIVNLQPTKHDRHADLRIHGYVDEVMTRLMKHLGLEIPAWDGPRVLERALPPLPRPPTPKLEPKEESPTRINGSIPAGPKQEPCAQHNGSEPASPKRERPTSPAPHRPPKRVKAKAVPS
effect on SIRT6-dependent fluorescence increments of SFP2 and SFP3 [1],pIC50 [2],Compound,"effect on SIRT6 activity ([2]; hydrolysis of 2.5 μM SFP3, 48 nM SIRT6, 500 μM NAD+, 37 °C, 60 min)",effect on SIRT1 activity [3]
suppressed,,"NC(=O)c1cccnc1 [NAM, nicotinamide]",,
,,"O=c1c(O)c(-c2ccc(O)c(O)c2)oc2cc(O)cc(O)c12 [Quercetin, quercetin]","inhibition at lower concentration, but activation at higher concentration","inhibition at lower concentration, but activation at higher concentration"
,~3.72,"Oc1ccc(/C=C/c2cc(O)cc(O)c2)cc1 [Resveratrol, resveratrol]",,did not affect
